Source: PubChem BioAssay AID1963425 (Molecular Pharmacology Branch, DTP, NCI, 2024)
Where “and” joins values, the source holds several entries; their conditions need not be identical. Equal entries are not always repeated.

System: 323965-272-R-J2-PDC complex spheroid growth, % test/control
Experiment: Anticancer human tumor 323965-272-R-J2-PDC patient-derived pancreatic carcinoma cell line growth inhibition [Asc]
Settings: for viability, T/C: stronger effect = lower value
Procedure: Multicellular complex tumor spheroid response to apoptosis pathway targeting inhibitors Alrizomadlin, Pelcitoclax, and Dasminapant in combination with a variety of drugs and investigational agents in selected tumor cell lines
The MDM2 inhibitor alrizomadlin, the Bcl-2/Bcl-xL inhibitor pelcitoclax, and the IAPs inhibitor dasminapant were evaluated both individually and in combination with standard of care and investigational anticancer small molecules within a complex spheroid model of solid tumors. . Complex spheroids include a stromal component modeled by human endothelial cells (HUVEC) and fibroblasts modeled by human mesenchymal stem cells (MSCs). The concentration ranges selected for each drug and investigational agent were based upon clinically achievable concentrations if the clinical Cmax of the agent was known.
Compounds. The drugs and investigational agents: alrizomadlin (APG-115; NSC831270), pelcitoclax (APG-1252; NSC835773), dasminapant (APG-1387;NSC834197), TAK-243 (NSC785004), copanlisib (NSC809693), olaparib (NSC753686), talazoparib (NSC767125), cobimetinib (NSC 768068), eltanexor (KPT-8602, NSC 794443), abemaciclib (NSC 768073), sotorasib (NSC818433), adagrasib (NSC 831453), MRTX-1133 (NSC 836407), Iadademestat (ORY1001, NSC 806812), and RMC-4630 (NSC839698), were obtained from the NCI Developmental Therapeutics Program Chemical Repository. The FDA-approved anticancer drug set is available from the Developmental Therapeutics Program at https://dtp.cancer.gov/organization/dscb/obtaining/available plates.htm. […] The stock solutions were prepared in dimethyl sulfoxide (DMSO, Sigma-Aldrich, St. Louis, MO, cat. D2650) at 800-fold the tested concentration and stored at -70 degrees C prior to their use. All drugs and investigational agents were tested over a range starting from a high concentration at or near the clinical Cmax and decreasing in half-log increments. If the clinical Cmax for an agent had not been determined, the highest concentration tested was 10 microM.
The patient-derived cancer (PDC) cell lines include five colon adenocarcinomas: 186277-243-T-J2-PDC, 616215-338-R-J1-PDC, 439559-082-T-J2-PDC, 463943-066-T-J2-PDC, and 519858-162-T-J1-PDC; three pancreatic carcinomas: 323965-272-R-J2-PDC, 521955-158-R6-J3-PDC, and 521955-158-R2-J5-PDC; two uterine sarcomas: 327498-152-R-J2-PDC and 993429-296-R-J1-PDC; two rhabdomyosarcomas: 755483-174-R-J1-PDC and 772245-204-R-J1-PDC; two soft tissue sarcomas: 126254-015-R-J1-PDC and 494315-158-R-J1-PDC; two malignant fibrous histiocytomas: 317291-083-R-J1-PDC and 596521-263-R-J1-PDC; two breast carcinomas: 171881-019-R-J1-PDC and 885512-296-R-J2-PDC; and one ovarian carcinoma: 6556581-035-R-J-PDC were obtained from the NCI PDMR, (https://pdmr.cancer.gov). The established cell lines HSSY-2 synovial sarcoma (RRID:CVCL 8719), SYO-1 synovial sarcoma (RRID:CVCL_7146), MPNST malignant peripheral neural sheath tumor were obtained from the Sloan Kettering Institute. The following established cell lines were purchased from the American Type Culture Collection (ATCC, Manassas, VA), Sor the received from the NCI repository:, PANC-1 pancreatic carcinoma (CRL-1469, RRID:CVCL_0480), OVCAR-5 ovarian carcinoma (RRID:CVCL_1628), OVCAR-8 ovarian carcinoma (RRID:CVCL_1629), , MCF-7 breast carcinoma (CRL-12584, RRID:CVCL_0031), MDA-MB-231 breast carcinoma (CRL-12532, RRID:CVCL_0062), NCI-H1876 small cell lung carcinoma (CRL-5902, RRID:CVCL_1503), NCI-H510A small cell lung carcinoma (HTB-184, RRID:CVCL_1565), NCI-H1417 (CRL-5869, RRID:CVCL_1469), and NCI-H196 small cell lung carcinoma (CRL-5823, RRID:CVCL_1509). Dr. Peter Houghton (Greehey Children's Cancer Research Institute, University of Texas Health Science Center, San Antonio, TX) provided Rh-18 rhabdomyosarcoma (RRID:CVCL_1659). Pooled donor human umbilical vein endothelial cells (HUVEC, Lonza, cat. CC-2519) and human mesenchymal stem cells (hMSC, Lonza, cat. PT-2501) were purchased from Lonza (Walkersville, MD).
Cell Culture. […]

[1] = curve of first compound, second compound 0.0316 µM
[2] = curve of first compound, second compound 0.1 µM
[3] = curve of first compound, second compound 0.316 µM
[4] = curve of first compound, second compound 1 µM
[5] = second compound 0.0316 µM, first compound 0.0316 µM
[6] = second compound 0.0316 µM, first compound 0.1 µM
[7] = second compound 0.0316 µM, first compound 0.316 µM
[8] = second compound 0.0316 µM, first compound 1 µM
[9] = second compound 0.1 µM, first compound 0.0316 µM
[10] = second compound 0.1 µM, first compound 0.1 µM
[11] = second compound 0.1 µM, first compound 0.316 µM
[12] = second compound 0.1 µM, first compound 1 µM
[13] = second compound 0.316 µM, first compound 0.0316 µM
[14] = second compound 0.316 µM, first compound 0.1 µM
[15] = second compound 0.316 µM, first compound 0.316 µM
[16] = second compound 0.316 µM, first compound 1 µM
[17] = second compound 1 µM, first compound 0.0316 µM
[18] = second compound 1 µM, first compound 0.1 µM
[19] = second compound 1 µM, first compound 0.316 µM
[20] = second compound 1 µM, first compound 1 µM
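Also: compound exposure lasted 7 days starting three days after spheroid seeding.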
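For viability, T/C in this document: 100% = DMSO vehicle control wells with viability set relative to vehicle.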

With COc1c(OCCCN2CCOCC2)ccc2c3n(c(=NC(=O)c4cnc(N)nc4)nc12)CCN3 the viability, T/C (compound 0.00316 µM) was 100% and 85.6% and 103%, the viability, T/C (compound 0.01 µM) was 99.3% and 80.7% and 93% and the viability, T/C (compound 0.0316 µM) was 79.6% and 65.5% and 71.6%. The viability, T/C (compound 0.1 µM) was 49.5% and 56.1% and 55.9%, the viability, T/C (compound 0.316 µM) was 32.8% and 41.2% and 33.7% and the viability, T/C (compound 1 µM) was 30.5% and 33.6% and 25.3%. The IC50 (curve of compound) was 154 nM and 119 nM and 92.1 nM.
C=C(F)C(=O)N1CCN(c2nc(OCC3CCCN3C)nc3c2CCN(c2cccc4cccc(Cl)c24)C3)CC1CC#N (stereo unspecified) + CNC(C)C(=O)NC1CN(S(=O)(=O)c2cccc(S(=O)(=O)N3CCC4CCC(C(=O)NC(c5ccccc5)c5ccccc5)N4C(=O)C(NC(=O)C(C)NC)C3)c2)CCC2CCC(C(=O)NC(c3ccccc3)c3ccccc3)N2C1=O showed an IC50 (curve of first compound, second compound 0.00316 µM) of 3550 nM, an IC50 (curve of first compound, second compound 0.01 µM) of 3550 nM and an IC50 [1] of 3700 nM. It also gave an IC50 [2] of 3450 nM, an IC50 [3] of 3720 nM and an IC50 [4] of 3380 nM. It also gave a viability, T/C (second compound 0.00316 µM, first compound 0.0316 µM) of 54.3%, a viability, T/C (second compound 0.00316 µM, first compound 0.1 µM) of 48.5% and a viability, T/C (second compound 0.00316 µM, first compound 0.316 µM) of 50.5%. For the same molecule, the viability, T/C (second compound 0.00316 µM, first compound 1 µM) was 56.1%, the viability, T/C (second compound 0.00316 µM, first compound 3.16 µM) was 67.9% and the viability, T/C (second compound 0.00316 µM, first compound 10 µM) was 0.23%. For the same molecule, the viability, T/C (second compound 0.01 µM, first compound 0.0316 µM) was 62.3%, the viability, T/C (second compound 0.01 µM, first compound 0.1 µM) was 44.2% and the viability, T/C (second compound 0.01 µM, first compound 0.316 µM) was 48.8%. For the same molecule, the viability, T/C (second compound 0.01 µM, first compound 1 µM) was 56.6%, the viability, T/C (second compound 0.01 µM, first compound 3.16 µM) was 66.3% and the viability, T/C (second compound 0.01 µM, first compound 10 µM) was 0.24%. It also gave a viability, T/C [5] of 55.8%, a viability, T/C [6] of 54.8% and a viability, T/C [7] of 47.1%. For the same molecule, the viability, T/C [8] was 55.4%, the viability, T/C (second compound 0.0316 µM, first compound 3.16 µM) was 76% and the viability, T/C (second compound 0.0316 µM, first compound 10 µM) was 0.21%. The viability, T/C [9] was 52%, the viability, T/C [10] was 46.7% and the viability, T/C [11] was 48.5%. For the same molecule, the viability, T/C [12] was 53.4%, the viability, T/C (second compound 0.1 µM, first compound 3.16 µM) was 69.9% and the viability, T/C (second compound 0.1 µM, first compound 10 µM) was 0.25%. It also gave a viability, T/C [13] of 55.5%, a viability, T/C [14] of 53.6% and a viability, T/C [15] of 59.5%. For the same molecule, the viability, T/C [16] was 53.8%, the viability, T/C (second compound 0.316 µM, first compound 3.16 µM) was 68.3% and the viability, T/C (second compound 0.316 µM, first compound 10 µM) was 0.21%. The viability, T/C [17] was 56.8%, the viability, T/C [18] was 49.1% and the viability, T/C [19] was 38.6%. The viability, T/C [20] was 56%, the viability, T/C (second compound 1 µM, first compound 3.16 µM) was 65% and the viability, T/C (second compound 1 µM, first compound 10 µM) was 0.22%.
In the case of COc1c(OCCCN2CCOCC2)ccc2c3n(c(=NC(=O)c4cnc(N)nc4)nc12)CCN3 + Cc1c(S(C)(=O)=O)c(-c2cc(F)cc(N3CCN(c4ccc(NS(=O)(=O)c5ccc(NC(CCN6CCC(C(=O)OCCCP(=O)(O)O)CC6)CSc6ccccc6)c(S(=O)(=O)C(F)(F)F)c5)cc4)CC3)c2)c(-c2ccc(Cl)cc2)n1C(C)C, the IC50 [1] is reported as 166 nM, the IC50 [2] is reported as 180 nM and the IC50 [3] is reported as 116 nM. For the same molecule, the IC50 [4] was 106 nM, the IC50 (curve of first compound, second compound 3.16 µM) was 77.1 nM and the IC50 (curve of first compound, second compound 10 µM) was 36.5 nM. For the same molecule, the viability, T/C (second compound 0.0316 µM, first compound 0.00316 µM) was 110%, the viability, T/C (second compound 0.0316 µM, first compound 0.01 µM) was 97.1% and the viability, T/C [5] was 86.4%. For the same molecule, the viability, T/C [6] was 58.3%, the viability, T/C [7] was 37.9% and the viability, T/C [8] was 24.8%. For the same molecule, the viability, T/C (second compound 0.1 µM, first compound 0.00316 µM) was 100%, the viability, T/C (second compound 0.1 µM, first compound 0.01 µM) was 99.5% and the viability, T/C [9] was 73.8%. It also gave a viability, T/C [10] of 60.1%, a viability, T/C [11] of 42.4% and a viability, T/C [12] of 25.8%. The viability, T/C (second compound 0.316 µM, first compound 0.00316 µM) was 107%, the viability, T/C (second compound 0.316 µM, first compound 0.01 µM) was 98.9% and the viability, T/C [13] was 71.5%. For the same molecule, the viability, T/C [14] was 49%, the viability, T/C [15] was 42.3% and the viability, T/C [16] was 23.9%. It also gave a viability, T/C (second compound 1 µM, first compound 0.00316 µM) of 94.1%, a viability, T/C (second compound 1 µM, first compound 0.01 µM) of 81.8% and a viability, T/C [17] of 74.9%. For the same molecule, the viability, T/C [18] was 49.9%, the viability, T/C [19] was 32.4% and the viability, T/C [20] was 23.1%. The viability, T/C (second compound 3.16 µM, first compound 0.00316 µM) was 73.2%, the viability, T/C (second compound 3.16 µM, first compound 0.01 µM) was 71.5% and the viability, T/C (second compound 3.16 µM, first compound 0.0316 µM) was 63.2%. The viability, T/C (second compound 3.16 µM, first compound 0.1 µM) was 46%, the viability, T/C (second compound 3.16 µM, first compound 0.316 µM) was 29.4% and the viability, T/C (second compound 3.16 µM, first compound 1 µM) was 21.3%. It also gave a viability, T/C (second compound 10 µM, first compound 0.00316 µM) of 73.2%, a viability, T/C (second compound 10 µM, first compound 0.01 µM) of 67.7% and a viability, T/C (second compound 10 µM, first compound 0.0316 µM) of 48.1%. It also gave a viability, T/C (second compound 10 µM, first compound 0.1 µM) of 39.4%, a viability, T/C (second compound 10 µM, first compound 0.316 µM) of 28.9% and a viability, T/C (second compound 10 µM, first compound 1 µM) of 19.3%.
